From patent US11076595B2, “1-(n,n-disubstituted carbamoyl) 4-(substituted sulfonyl)triazolin-5-one derivative, 4-(n,n-disubstituted carbamoyl) 1-(substituted sulfonyl)triazolin-5-one derivative, and herbicide containing said derivative as active ingredient” (HOKKO CHEMICAL INDUSTRY CO., LTD., priority 2017, dated 2021)

Columns and labels:
Type in all cases: in vivo
Echinochloa crus-galli [1] = assay: Test Example 11: herbicidal effect test by soil treatment in paddy field; conditions: 120 g/10a active ingredient, 14 days after treatment
Source text: (§1) A Wagner pot having an area of 1/10000 are was filled with paddy field soil and after adding water, a chemical fertilizer (N:P:K=17:17:17) was mixed, followed by puddling. Thereafter, 30 grains of each of Echinochloa crus-galli, broad-leaved weed (Lindernia pyxidaria, Monochoria vaginalis) and Scirpus juncoides seeds were sown to a depth of 0 to 1 cm. Immediately after the sowing, the pot was flooded, and the depth of water was kept at about 3 cm. The pot was subsequently managed in a glass greenhouse. Just after that, an emulsifiable concentrate prepared according to Formulation Example 15 by using the compound shown in Table 9 below was diluted with water, and a predetermined amount of the water-diluted formulation was added dropwise. The application rate of the active ingredient, by conversion, corresponded to 120 g per 10 are.
(§2) This test was performed with two replications per one formulation concentration plot, and 14 days after the formulation treatments, the weed suppression rate (%) was determined according to the following equation (Math. 2). Weed suppression rate (%)=(1−average dry weight (g) of plants in treated plots/average dry weight (g) of plants in untreated plots)×100 [Math. 2]

Monochoria vaginalis [2] = assay: as above; conditions: 120 g/10a active ingredient, 14 days after treatment
Source text: as §1, §2

Scirpus juncoides [3] = assay: as above; conditions: 120 g/10a active ingredient, 14 days after treatment
Source text: as §1, §2

Lindernia pyxidaria [4] = assay: as above; conditions: 120 g/10a active ingredient, 14 days after treatment
Source text: as §1, §2

Echinochloa crus-galli [5] = assay: Test Example 12: herbicidal effect test by treatment during growing period in paddy field; conditions: 120 g/10a; treatment seven days after sowing in flooded paddy pot; assessed 14 days after treatment
Description: as §2
as §1, with “Seven Days” for “Just”, “sowing,” for “that,”, “10” for “9”, “are. The test was performed with two replications per one formulation concentration plot, and 14 days after the formulation treatments, the weed suppression rate (%) was determined according to the equation (Math. 2).” for “are.”

Monochoria vaginalis [6] = assay: as above; conditions: 120 g/10a; treatment seven days after sowing in flooded paddy pot; assessed 14 days after treatment
Description: as §2
as §1, with “Seven Days” for “Just”, “sowing,” for “that,”, “10” for “9”, “are. The test was performed with two replications per one formulation concentration plot, and 14 days after the formulation treatments, the weed suppression rate (%) was determined according to the equation (Math. 2).” for “are.”

Scirpus juncoides [7] = assay: as above; conditions: 120 g/10a; treatment seven days after sowing in flooded paddy pot; assessed 14 days after treatment
Description: as §2
as §1, with “Seven Days” for “Just”, “sowing,” for “that,”, “10” for “9”, “are. The test was performed with two replications per one formulation concentration plot, and 14 days after the formulation treatments, the weed suppression rate (%) was determined according to the equation (Math. 2).” for “are.”

Lindernia pyxidaria [8] = assay: as above; conditions: 120 g/10a; treatment seven days after sowing in flooded paddy pot; assessed 14 days after treatment
Description: as §2
as §1, with “Seven Days” for “Just”, “sowing,” for “that,”, “10” for “9”, “are. The test was performed with two replications per one formulation concentration plot, and 14 days after the formulation treatments, the weed suppression rate (%) was determined according to the equation (Math. 2).” for “are.”

SMILES: CCS(=O)(=O)n1ncn(C(=O)N(C)c2ccc(F)cc2F)c1=O [Compound 11-1126]
- Weed suppression rate (%) Echinochloa crus-galli (Echinochloa crus-galli [1]): 100%
- Weed suppression rate (%) Monochoria vaginalis (Monochoria vaginalis [2]): 70%
- Weed suppression rate (%) Scirpus juncoides (Scirpus juncoides [3]): 100%
- Weed suppression rate (%) Lindemia pyxidaria (Lindernia pyxidaria [4]): 90%
- Weed suppression rate (%) Echinochloa crus-galli (Echinochloa crus-galli [5]): 100%
- Weed suppression rate (%) Monochoria vaginalis (Monochoria vaginalis [6]): 70%
- Weed suppression rate (%) Scirpus juncoides (Scirpus juncoides [7]): 100%
- Weed suppression rate (%) Lindemia pyxidaria (Lindernia pyxidaria [8]): 70%

SMILES: CC(C)S(=O)(=O)n1ncn(C(=O)N(C)c2ccc(F)cc2F)c1=O [Compound 11-1127]
- Weed suppression rate (%) Echinochloa crus-galli (Echinochloa crus-galli [1]): 100%
- Weed suppression rate (%) Monochoria vaginalis (Monochoria vaginalis [2]): 70%
- Weed suppression rate (%) Scirpus juncoides (Scirpus juncoides [3]): 80%
- Weed suppression rate (%) Lindemia pyxidaria (Lindernia pyxidaria [4]): 80%
- Weed suppression rate (%) Echinochloa crus-galli (Echinochloa crus-galli [5]): 100%
- Weed suppression rate (%) Monochoria vaginalis (Monochoria vaginalis [6]): 70%
- Weed suppression rate (%) Scirpus juncoides (Scirpus juncoides [7]): 100%
- Weed suppression rate (%) Lindemia pyxidaria (Lindernia pyxidaria [8]): 70%

SMILES: CC(C)N(C(=O)n1cnn(S(=O)(=O)C2CCCCC2)c1=O)c1ccc(C(F)(F)F)cc1Cl [Compound 11-314]
- Weed suppression rate (%) Echinochloa crus-galli (Echinochloa crus-galli [1]): 90%
- Weed suppression rate (%) Monochoria vaginalis (Monochoria vaginalis [2]): 80%
- Weed suppression rate (%) Scirpus juncoides (Scirpus juncoides [3]): 90%
- Weed suppression rate (%) Lindemia pyxidaria (Lindernia pyxidaria [4]): 80%
- Weed suppression rate (%) Echinochloa crus-galli (Echinochloa crus-galli [5]): 90%
- Weed suppression rate (%) Monochoria vaginalis (Monochoria vaginalis [6]): 80%
- Weed suppression rate (%) Scirpus juncoides (Scirpus juncoides [7]): 90%
- Weed suppression rate (%) Lindemia pyxidaria (Lindernia pyxidaria [8]): 80%

SMILES: CC(C)N(C(=O)n1cnn(S(=O)(=O)N(C)C)c1=O)c1ccc(C(F)(F)F)cc1Cl [Compound 11-1084]
- Weed suppression rate (%) Echinochloa crus-galli (Echinochloa crus-galli [1]): 90%
- Weed suppression rate (%) Monochoria vaginalis (Monochoria vaginalis [2]): 80%
- Weed suppression rate (%) Scirpus juncoides (Scirpus juncoides [3]): 90%
- Weed suppression rate (%) Lindemia pyxidaria (Lindernia pyxidaria [4]): 80%
- Weed suppression rate (%) Echinochloa crus-galli (Echinochloa crus-galli [5]): 90%
- Weed suppression rate (%) Monochoria vaginalis (Monochoria vaginalis [6]): 80%
- Weed suppression rate (%) Scirpus juncoides (Scirpus juncoides [7]): 90%
- Weed suppression rate (%) Lindemia pyxidaria (Lindernia pyxidaria [8]): 80%

SMILES: CC(C)N(C(=O)n1cnn(S(=O)(=O)c2ccccc2Cl)c1=O)c1ccc(Cl)cn1 [Compound 11-536]
- Weed suppression rate (%) Echinochloa crus-galli (Echinochloa crus-galli [1]): 90%
- Weed suppression rate (%) Monochoria vaginalis (Monochoria vaginalis [2]): 60%
- Weed suppression rate (%) Scirpus juncoides (Scirpus juncoides [3]): 60%
- Weed suppression rate (%) Lindemia pyxidaria (Lindernia pyxidaria [4]): 90%
- Weed suppression rate (%) Echinochloa crus-galli (Echinochloa crus-galli [5]): 90%
- Weed suppression rate (%) Monochoria vaginalis (Monochoria vaginalis [6]): 60%
- Weed suppression rate (%) Scirpus juncoides (Scirpus juncoides [7]): 90%
- Weed suppression rate (%) Lindemia pyxidaria (Lindernia pyxidaria [8]): 80%

SMILES: Cc1cc(C)c(S(=O)(=O)n2ncn(C(=O)N(c3cccc(F)c3F)C(C)C)c2=O)c(C)c1 [Compound 11-862]
- Weed suppression rate (%) Echinochloa crus-galli (Echinochloa crus-galli [1]): 100%
- Weed suppression rate (%) Monochoria vaginalis (Monochoria vaginalis [2]): 100%
- Weed suppression rate (%) Scirpus juncoides (Scirpus juncoides [3]): 100%
- Weed suppression rate (%) Lindemia pyxidaria (Lindernia pyxidaria [4]): 100%
- Weed suppression rate (%) Echinochloa crus-galli (Echinochloa crus-galli [5]): 100%
- Weed suppression rate (%) Monochoria vaginalis (Monochoria vaginalis [6]): 100%
- Weed suppression rate (%) Scirpus juncoides (Scirpus juncoides [7]): 100%
- Weed suppression rate (%) Lindemia pyxidaria (Lindernia pyxidaria [8]): 80%

SMILES: CC(C)N(C(=O)n1cnn(S(=O)(=O)c2cccc(F)c2)c1=O)c1c(F)cc(F)cc1F [Compound 11-442]
- Weed suppression rate (%) Echinochloa crus-galli (Echinochloa crus-galli [1]): 100%
- Weed suppression rate (%) Monochoria vaginalis (Monochoria vaginalis [2]): 70%
- Weed suppression rate (%) Scirpus juncoides (Scirpus juncoides [3]): 80%
- Weed suppression rate (%) Lindemia pyxidaria (Lindernia pyxidaria [4]): 80%
- Weed suppression rate (%) Echinochloa crus-galli (Echinochloa crus-galli [5]): 100%
- Weed suppression rate (%) Monochoria vaginalis (Monochoria vaginalis [6]): 90%
- Weed suppression rate (%) Scirpus juncoides (Scirpus juncoides [7]): 80%
- Weed suppression rate (%) Lindemia pyxidaria (Lindernia pyxidaria [8]): 80%

SMILES: CC(C)N(C(=O)n1cnn(S(=O)(=O)c2ccc(Cl)cc2)c1=O)c1cccc(F)c1F [Compound 11-587]
- Weed suppression rate (%) Echinochloa crus-galli (Echinochloa crus-galli [1]): 90%
- Weed suppression rate (%) Monochoria vaginalis (Monochoria vaginalis [2]): 60%
- Weed suppression rate (%) Scirpus juncoides (Scirpus juncoides [3]): 60%
- Weed suppression rate (%) Lindemia pyxidaria (Lindernia pyxidaria [4]): 80%
- Weed suppression rate (%) Echinochloa crus-galli (Echinochloa crus-galli [5]): 90%
- Weed suppression rate (%) Monochoria vaginalis (Monochoria vaginalis [6]): 90%
- Weed suppression rate (%) Scirpus juncoides (Scirpus juncoides [7]): 90%
- Weed suppression rate (%) Lindemia pyxidaria (Lindernia pyxidaria [8]): 80%

SMILES: Cc1cc(Cl)ccc1N(C(=O)n1cnn(S(=O)(=O)N(C)C)c1=O)C(C)C [Compound 11-1079]
- Weed suppression rate (%) Echinochloa crus-galli (Echinochloa crus-galli [1]): 90%
- Weed suppression rate (%) Monochoria vaginalis (Monochoria vaginalis [2]): 80%
- Weed suppression rate (%) Scirpus juncoides (Scirpus juncoides [3]): 90%
- Weed suppression rate (%) Lindemia pyxidaria (Lindernia pyxidaria [4]): 80%
- Weed suppression rate (%) Echinochloa crus-galli (Echinochloa crus-galli [5]): 90%
- Weed suppression rate (%) Monochoria vaginalis (Monochoria vaginalis [6]): 80%
- Weed suppression rate (%) Scirpus juncoides (Scirpus juncoides [7]): 90%
- Weed suppression rate (%) Lindemia pyxidaria (Lindernia pyxidaria [8]): 80%
